Tests used:
[1] = Cycle 1 biodistribution: SPECT/CT time-activity curves (fraction of injected activity); type: in vivo, human; settings: excluding patient 42-030
Protocol: This Example presents the biodistribution, dosimetry, and pharmacokinetics (PK) results of a PK/Dosimetry sub-study performed as part of a Phase III trial. Twenty-seven (27) patients were administered a target activity of 7.4±10% GBq of ^177Lu-PSMA-I&T and underwent single photon emission computed tomography (SPECT)/computed tomography (CT) imaging at four timepoints (4 h, 24 h, 48 h, and 168 h). Image data was analysed to compute time-activity curves (TACs) and subsequently time-integrated activity coefficients (TIACs) in each organ of interest and in organs showing appreciable and meaningful ^177Lu-PSMA-I&T activity. Organ Level Internal Dose Assessment (OLINDA 2.2.3) was used to compute organ and whole body absorbed radiation doses for each patient.
All participating sites underwent a rigorous site setup process during which all dose calibrators, scanners, and gamma counters used in the sub-study were calibrated. Sites were allowed to enroll patients in the sub-study only after the completion and approval of all site setup processes by Invicro. Patients underwent SPECT/CT imaging, with anatomical coverage typically extending from the salivary glands to the pelvis, following the administration of a targeted 7.4±10% GBq of ^177Lu-PSMA-I&T at cycle 1. SPECT/CT imaging was performed at four timepoints: 4 h, 24 h, 48 h, and 168 h post-injection. Additionally, a subset of patients imaged at Cycle 1 (16 out of 27), were also imaged at Cycle 3 (Table 2).
Volume of interest (VOI) (kidneys, bladder, liver, lumbar vertebrae L2-L4, lacrimal glands, salivary glands [parotid and submandibular glands], and whole body) were delineated on each dataset by a trained image analyst. […]
Clearance of the radiopharmaceutical was derived from a data-appropriate fit of each organ's TAC. […] TIACs were calculated through analytical integration of the curve fit extrapolated to infinity. […] The remainder activity was determined by subtracting the cumulative organ TIACs from the whole body TIAC. […]

[2] = Cycle 3 plasma PK modelling; type: in vivo, human; settings: n = 15
Protocol: Whole blood samples were collected as detailed in the protocol Schedule of Events i.e. pre-injection, and then at 1 h, 4 h, 24 h, 48 h, and 168 h post-injection. The samples were first centrifuged to separate plasma, and the radioactivity in the plasma was then measured using a gamma counter. Plasma concentrations were subsequently fitted with a bi-exponential function to derive outcome parameters such as the half-life and clearance rate of the radiopharmaceutical in the plasma.
Blood samples were obtained for 15 out of 16 patients at cycle 3. Patients 12-004 had blood taken only at the 24 h timepoint and, therefore, was not included in the plasma PK analysis. Consistent with Cycle 1, the time-course of plasma concentrations was similar among the patients. The ranges of PK parameters obtained at cycle 3 were similar to those from Cycle 1 data (Tables 9A and 9B).
Blood samples were obtained for 15 out of 16 patients at cycle 3. Patients 12-004 had blood taken only at the 24 h timepoint and, therefore, was not included in the plasma PK analysis. Consistent with Cycle 1, the time-course of plasma concentrations was similar among the patients. The ranges of PK parameters obtained at cycle 3 were similar to those from Cycle 1 data (Table 29). See Table 29) Cycle 3 PK plasma modeling results (n15)

O=C(O)CC[C@H](NC(=O)N[C@@H](CCCCNC(=O)CCCCCCC(=O)NCCCC[C@@H](NC(=O)[C@@H](Cc1ccccc1)NC(=O)[C@@H](Cc1ccc(O)c(I)c1)NC(=O)CC[C@H](C(=O)O)N1CCN(CC(=O)O)CCN(CC(=O)O)CCN(CC(=O)O)CC1)C(=O)O)C(=O)O)C(=O)O [^177Lu-PSMA-I&T, (3S,7 S,26R,29R,32R,37R)-29-benzyl-32-(4-hydroxy-3-iodobenzyl)-5,13,20,28,31,34-hexaoxo-37-(4,7,10-tris(carboxymethyl)-1,4,7,10-tetraazacyclododecan-1-yl)-4,6,12,21,27,30,33-heptaazaheptatriacontane-1,3,7,26,37-pentacarboxylic acid; lutetium-177 (III), metal not drawn]
whole body activity retention at 4 h, max [1]: 78% | whole body activity retention at 4 h, min [1]: 24% | whole body mean activity retention at 4 h [1]: 44%±13% | AUC Total, Mean [2]: 25.58 fIA/L × min | AUC Total, max [2]: 39.62 fIA/L × min | AUC Total, median [2]: 24.55 fIA/L × min | AUC Total, min [2]: 13.86 fIA/L × min | Peak Concentration Value, Mean [2]: 0.05 fIA/L | Peak Concentration Value, max [2]: 0.07 fIA/L | Peak Concentration Value, median [2]: 0.04 fIA/L | Peak Concentration Value, min [2]: 0.03 fIA/L | Time of Peak Concentration [2]: 55.00 min | Time of Peak Concentration, Mean [2]: 60.67 min | Time of Peak Concentration, max [2]: 68.00 min | Time of Peak Concentration, median [2]: 60.00 min | Vc, Mean [2]: 16.40 L | Vc, max [2]: 24.53 L | Vc, median [2]: 16.42 L | Vc, min [2]: 10.66 L

— patent publication US20250262336A1, “[177LU] LUTETIUM-PSMA I&T COMPOSITION AND DOSIMETRY, KIT, METHOD OF MAKING, AND METHOD OF USING THEREOF” (Curium US LLC, priority 2023, published 2025)
